Measurements published in the NIST ThermoML archive (doi:10.1016/j.jct.2015.09.018).

Settings: 101.33 kPa, Crystal 3; for molar entropy: relaxation calorimeter

[O-2].[O-2].[Ti+4] [titanium(IV) oxide]
Settings | molar entropy [J/K/mol]
0.5 K | 0.000413
1 K | 0.000882
1.5 K | 0.00146
2 K | 0.00221
2.5 K | 0.00316
3 K | 0.00439
3.5 K | 0.00591
4 K | 0.00779
4.5 K | 0.01
5 K | 0.0127
5.5 K | 0.0158
6 K | 0.0194
6.5 K | 0.0234
7 K | 0.0279
7.5 K | 0.0328
8 K | 0.0383
8.5 K | 0.0442
9 K | 0.0506
9.5 K | 0.0575
10 K | 0.0649
11 K | 0.081
12 K | 0.0989
13 K | 0.119
14 K | 0.141
15 K | 0.164
16 K | 0.19
17 K | 0.218
18 K | 0.248
19 K | 0.28
20 K | 0.314
25 K | 0.524
30 K | 0.798
35 K | 1.14
40 K | 1.55
45 K | 2.02
50 K | 2.55
55 K | 3.15
60 K | 3.8
65 K | 4.5
70 K | 5.25
75 K | 6.04
80 K | 6.87
85 K | 7.74
90 K | 8.65
95 K | 9.59
100 K | 10.56
110 K | 12.56
120 K | 14.64
130 K | 16.77
140 K | 18.94
150 K | 21.13
160 K | 23.34
170 K | 25.56
180 K | 27.77
190 K | 29.99
200 K | 32.19
210 K | 34.38
220 K | 36.55
230 K | 38.69
240 K | 40.82
250 K | 42.91
260 K | 44.98
270 K | 47.03
273.15 K | 47.66
280 K | 49.04
290 K | 51.02
298.15 K | 52.61
300 K | 52.97
305 K | 53.94

Settings | mass density [kg/m3]
298.15 K, X-ray diffraction | 4130
